Tested on: SMN2-linked luciferase-reporter gene construct
Experiment: SMN Splice Reporter Assay (SMN2-linked luciferase reporter)
Assay type: cell-based
Details: cervical carcinoma cell lines, SMN2 splice luciferase reporter
Text: As previously discussed, SMN1 is the gene deleted in SMA patients; the SMN2 gene remains intact in both SMA and normal patients. Therefore, SMN2 provides a potential means of increasing SMN production in SMA patients and is, thus, a target for developing SMA treatments. SMN2 is identical to SMN1 with the exception of a single base pair change that results in reduced expression of the gene. The reduction is based on the creation of an alternatively spliced RNA that produces an unstable protein carrying a deletion of exon 7. Both full length SMN and exon 7 deleted SMN are produced by the SMN2 gene via alternative RNA splicing, but the major product is the unstable deleted form.
Cervical carcinoma cell lines were transformed with a SMN2-linked luciferase-reporter gene construct. The reporter is designed to detect shifts in the alternative splicing of SMN2 sequences. In particular, the reporter is constructed as a fusion of the alternatively spliced sequences of the SMN2 gene and the luciferase gene. Luciferase sequences are in the correct translational reading frame only when the SMN2 sequences are spliced according to the normal SMN1 mechanism (e.g., splicing to include exon 7), which allows for translation of the stable SMN protein. Compounds were tested in the assay by administering the compound to the cell line and detecting an increase in the luciferase activity. The assay is described in greater detail in Zhang et al., Gene Ther., 8: 1532-8 (2001). Compounds were administered as described in Lunn et al, Chem. & Biol, 11: 1489-1493 (2004).
The results are reported as a fold-increase over a baseline reading of transformed cells without any test compound. The EC50 value also is reported in Table 1 for some exemplary compounds of the invention.

EC50	Structure (SMILES)
24 nM	O=C1c2cc(N3CCCC3)ccc2CN1c1ccc2ncccc2c1 [Example 124770]
83 nM	Cn1ccc2cc(N3Cc4ccc(OC5CCCC5)cc4C3=O)ccc21 [Example 121929]
29 nM	Cn1ccc2ccc(N3Cc4cc5c(cc4C3=O)OCCO5)cc21 [Example 118902]
338 nM	Cn1ccc2cc(N3Cc4cccc([N+](=O)[O-])c4C3=O)ccc21 [Example 120428]
53 nM	Cc1ccc2c(c1)C(=O)N(c1ccc3c(c1)cc(C)n3C)C2 [Example 123015]
45 nM	COc1ccc2c(c1)CN(c1ccc3sccc3c1)C2=O [Example 121643]
440 nM	CC(=O)Nc1ccc2c(c1)C(=O)N(c1ccc3c(c1)cc(C)n3C)C2 [Example 124034]
784 nM	COc1ccc2c(c1)C(=O)N(c1ccc3ccc(OC)nc3c1)C2 [Example 123936]
327 nM	COc1ccc2c(c1)C(=O)N(c1ccc3cc4n(c3c1)CCC4)C2 [Example 124774]
660 nM	CCCCc1ccc2c(c1)C(=O)N(c1ccc3c(c1)cc(C)n3C)C2 [Example 123331]
63 nM	Cc1ccc(N2Cc3cc4c(cc3C2=O)OCCO4)nc1 [Example 118418]
143 nM	COC(=O)C1CCc2cc(N3Cc4ccccc4C3=O)ccc21 (centres unmarked) [Example 113487]
1060 nM	COc1ccc2c(c1)C(=O)N(c1ccc3ncncc3c1)C2 [Example 121791]
444 nM	CCOc1ccc2c(c1)C(=O)N(c1ccc3c(c1)cc(C)n3C)C2 [Example 123328]
158 nM	Cn1ccc2cc(N3Cc4ccccc4C3=O)ccc21 [Example 120287]
749 nM	COc1cccc2c1CN(c1ccc3ccsc3c1)C2=O [Example 121513]
4 nM	CN(C)c1ccc2c(c1)C(=O)N(c1ccc3cc[nH]c3c1)C2 [Example 125600]
145 nM	CCCOc1ccc2c(c1)C(=O)N(c1ccc3ccn(C)c3c1)C2 [Example 124325]
134 nM	Cc1cc2ccc(N3Cc4ccc(OC(C)C)cc4C3=O)cc2n1C [Example 125098]
830 nM	COc1ccc2c(c1)C(=O)N(c1ccc3c(c1)n(C)c(=O)n3C)C2 [Example 120432]
188 nM	COc1ccc2c(c1)C(=O)N(c1ccc3c(ccc[n+]3[O-])c1)C2 [Example 121786]
183 nM	COc1ccc2c(c1)C(=O)N(c1ccc3ncn(C)c3c1)C2 [Example 120598]
35 nM	CCCc1ccc2c(c1)C(=O)N(c1ccc3sccc3c1)C2 [Example 122819]
7870 nM	COCCn1ccc2ccc(N3Cc4ccc(OC)cc4C3=O)cc21 [Example 120284]
115 nM	O=C1c2cc(OC(F)F)ccc2CN1c1ccc2sccc2c1 [Example 121644]

EC50	Structure (SMILES)
66 nM	O=C1c2cc3c(cc2CN1c1ccc2sccc2c1)OCCO3 [Example 118900]
35 nM	COc1ccc2c(c1)C(=O)N(c1ccc3ccn(C(C)=O)c3c1)C2 [Example 121260]
125 nM	CCc1ccc2c(c1)C(=O)N(c1ccc3ccsc3c1)C2 [Example 122683]
414 nM	Cc1cccc2c1CN(c1ccc3c(ccn3C)c1)C2=O [Example 120952]
217 nM	COc1ccc2c(c1)C(=O)N(c1ccc3c(c1)NCCN3)C2 [Example 121921]
15 nM	CC(=O)Nc1ccc2c(c1)C(=O)N(c1ccc3cc[nH]c3c1)C2 [Example 125269]
459 nM	Cn1ccc2ccc(N3Cc4ccc(-c5cccnc5)cc4C3=O)cc21 [Example 122318]
829 nM	Cn1ccc2ccc(N3Cc4ccc(Br)cc4C3=O)cc21 [Example 120117]
225 nM	CCCCOc1ccc2c(c1)C(=O)N(c1ccc3c(ccn3C)c1)C2 [Example 121922]
116 nM	COc1ccc2c(c1)C(=O)N(c1ccc3c(c1)cc1n3CCC1)C2 [Example 124651]
361 nM	Cn1ccc2cc(N3Cc4cccc(Cl)c4C3=O)ccc21 [Example 120793]
199 nM	COc1cc2c(cc1F)CN(c1ccc3c(ccn3C)c1)C2=O [Example 121926]
148 nM	CCCCc1ccc2c(c1)C(=O)N(c1ccc3c(ccn3C)c1)C2 [Example 121928]
235 nM	COc1ccc2c(c1)C(=O)N(c1ccc(C(C)C)cn1)C2 [Example 119654]
242 nM	COc1ccc2c(c1)CN(c1ccc3ccn(C)c3c1)C2=O [Example 119870]
143 nM	COc1ccc2c(c1)C(=O)N(c1ccc3ccn(C)c3c1)C2 [Example 118561]
569 nM	CCC(C)c1ccc2c(c1)C(=O)N(c1ccc3c(c1)cc(C)n3C)C2 (centres unmarked) [Example 123329]
1140 nM	COc1ccc2c(c1)C(=O)N(c1ccc3nc(OC)ncc3c1)C2 [Example 122432]
1580 nM	COc1ccc2c(c1)C(=O)N(c1ccc3c(Cl)ccnc3c1)C2 [Example 123711]
1100 nM	COc1cccc2c1CN(c1ccc3ccn(C)c3c1)C2=O [Example 120123]
347 nM	Nc1ccc2c(c1)C(=O)N(c1ccc3ccsc3c1)C2 [Example 122036]
175 nM	Cn1ccc2ccc(N3Cc4cc(N)ccc4C3=O)cc21 [Example 121257]
34 nM	Cc1ccc2c(c1)C(=O)N(c1ccc3c(ccn3C)c1)C2 [Example 121507]
157 nM	O=C1c2cc(OC(F)F)ccc2CN1c1ccc2c(c1)CCC2 [Example 119337]

Same assay, conditions: fold-increase of luciferase over baseline reading of transformed cells without any test compound

Structure (SMILES)	Fold Increase
O=C1c2cc(N3CCCC3)ccc2CN1c1ccc2ncccc2c1 [Example 124770]	1.948
Cc1cc2cc(N3Cc4ccc(N(C)C)cc4C3=O)ccc2n1C(C)C [Example 125602]	1.139
Cn1ccc2cc(N3Cc4ccc(OC5CCCC5)cc4C3=O)ccc21 [Example 121929]	1.316
Cn1ccc2ccc(N3Cc4cc5c(cc4C3=O)OCCO5)cc21 [Example 118902]	1.774
Cn1ccc2ccc(N3Cc4ccc(S(C)(=O)=O)cc4C3=O)cc21 [Example 124168]	1.462
Cn1ccc2cc(N3Cc4cccc([N+](=O)[O-])c4C3=O)ccc21 [Example 120428]	1.262
Cc1ccc2c(c1)C(=O)N(c1ccc3c(c1)cc(C)n3C)C2 [Example 123015]	1.43
COc1ccc2c(c1)CN(c1ccc3sccc3c1)C2=O [Example 121643]	1.778
CC(=O)Nc1ccc2c(c1)C(=O)N(c1ccc3c(c1)cc(C)n3C)C2 [Example 124034]	1.494
COc1ccc2c(c1)C(=O)N(c1ccc3ccc(OC)nc3c1)C2 [Example 123936]	1.429
COc1ccc2c(c1)C(=O)N(c1ccc3cc4n(c3c1)CCC4)C2 [Example 124774]	1.369
CCCCc1ccc2c(c1)C(=O)N(c1ccc3c(c1)cc(C)n3C)C2 [Example 123331]	1.31
Cn1ccc2ccc(N3Cc4ccc(N5CCOCC5)cc4C3=O)cc21 [Example 124539]	1.652
Cc1ccc(N2Cc3cc4c(cc3C2=O)OCCO4)nc1 [Example 118418]	1.496
COC(=O)C1CCc2cc(N3Cc4ccccc4C3=O)ccc21 (centres unmarked) [Example 113487]	1.259
COc1ccc2c(c1)C(=O)N(c1ccc3ncncc3c1)C2 [Example 121791]	1.448
CCOc1ccc2c(c1)C(=O)N(c1ccc3c(c1)cc(C)n3C)C2 [Example 123328]	1.316
Cn1ccc2cc(N3Cc4ccccc4C3=O)ccc21 [Example 120287]	1.433
COc1cccc2c1CN(c1ccc3ccsc3c1)C2=O [Example 121513]	1.612
COc1ccc2c(c1)C(=O)N(c1ccc3[nH]ccc3c1)C2 [Example 119657]	1.21
CN(C)c1ccc2c(c1)C(=O)N(c1ccc3cc[nH]c3c1)C2 [Example 125600]	1.405
CC(=O)Nc1ccc2c(c1)C(=O)N(c1ccc3c(c1)cc(C)n3C(C)C)C2 [Example 125822]	1.329
CC(C)C(=O)Nc1ccc2c(c1)C(=O)N(c1ccc3c(ccn3C)c1)C2 [Example 124863]	1.251

Structure (SMILES)	Fold Increase
CCCOc1ccc2c(c1)C(=O)N(c1ccc3ccn(C)c3c1)C2 [Example 124325]	1.69
Cc1cc2ccc(N3Cc4ccc(OC(C)C)cc4C3=O)cc2n1C [Example 125098]	1.251
COc1ccc2c(c1)C(=O)N(c1ccc3c(c1)n(C)c(=O)n3C)C2 [Example 120432]	1.234
Cc1cc2ccc(N3Cc4ccc(O)cc4C3=O)cc2n1C [Example 124984]	1.401
CCCCOc1ccc2c(c1)C(=O)N(c1ccc3c(c1)cc(C)n3C)C2 [Example 124035]	1.118
COc1ccc2c(c1)C(=O)N(c1ccc3c(ccc[n+]3[O-])c1)C2 [Example 121786]	1.498
COc1ccc2c(c1)C(=O)N(c1ccc3ncn(C)c3c1)C2 [Example 120598]	1.552
CCCc1ccc2c(c1)C(=O)N(c1ccc3sccc3c1)C2 [Example 122819]	1.547
CCCc1ccc2c(c1)C(=O)N(c1ccc3c(ccn3C(C)C)c1)C2 [Example 125386]	1.037
COCCn1ccc2ccc(N3Cc4ccc(OC)cc4C3=O)cc21 [Example 120284]	1.19
O=C1c2cc(OC(F)F)ccc2CN1c1ccc2sccc2c1 [Example 121644]	1.801
O=C1c2cc3c(cc2CN1c1ccc2sccc2c1)OCCO3 [Example 118900]	1.399
COc1ccc2c(c1)C(=O)N(c1ccc3ccn(C(C)=O)c3c1)C2 [Example 121260]	1.414
CCc1ccc2c(c1)C(=O)N(c1ccc3ccsc3c1)C2 [Example 122683]	1.582
Cc1cccc2c1CN(c1ccc3c(ccn3C)c1)C2=O [Example 120952]	1.374
COc1ccc2c(c1)C(=O)N(c1ccc3c(c1)NCCN3)C2 [Example 121921]	1.365
CC(=O)Nc1ccc2c(c1)C(=O)N(c1ccc3cc[nH]c3c1)C2 [Example 125269]	1.416
Cn1ccc2ccc(N3Cc4ccc(NS(C)(=O)=O)cc4C3=O)cc21 [Example 124977]	1.061
Cn1ccc2ccc(N3Cc4ccc(-c5cccnc5)cc4C3=O)cc21 [Example 122318]	1.94
Cn1ccc2ccc(N3Cc4ccc(Br)cc4C3=O)cc21 [Example 120117]	1.519
CCCCOc1ccc2c(c1)C(=O)N(c1ccc3c(ccn3C)c1)C2 [Example 121922]	1.301
Cn1ccc2ccc(N3Cc4ccc(NC(=O)c5ccccc5)cc4C3=O)cc21 [Example 124775]	1.216
COc1ccc2c(c1)C(=O)N(c1ccc3c(c1)cc1n3CCC1)C2 [Example 124651]	1.452

Structure (SMILES)	Fold Increase
Cn1ccc2cc(N3Cc4cccc(Cl)c4C3=O)ccc21 [Example 120793]	1.395
COc1ccc2c(c1)C(=O)N(c1ccc3ccn(CCNC(C)=O)c3c1)C2 [Example 121083]	1.083
COc1cc2c(cc1F)CN(c1ccc3c(ccn3C)c1)C2=O [Example 121926]	1.533
CCCCc1ccc2c(c1)C(=O)N(c1ccc3c(ccn3C)c1)C2 [Example 121928]	1.384
COc1ccc2c(c1)C(=O)N(c1ccc(C(C)C)cn1)C2 [Example 119654]	1.44
COc1ccc2c(c1)CN(c1ccc3ccn(C)c3c1)C2=O [Example 119870]	1.83
COc1ccc2c(c1)C(=O)N(c1ccc3ccn(C)c3c1)C2 [Example 118561]	1.74
CCC(C)c1ccc2c(c1)C(=O)N(c1ccc3c(c1)cc(C)n3C)C2 (centres unmarked) [Example 123329]	1.327
CC(=O)Nc1cccc2c1CN(c1ccc3c(ccn3C)c1)C2=O [Example 121074]	1.078
COc1ccc2c(c1)C(=O)N(c1ccc3nccc(OC)c3c1)C2 [Example 123205]	1.227
Cc1ccc2c(c1)CN(c1ccc3c(ccn3C)c1)C2=O [Example 120780]	1.344
COc1ccc2c(c1)C(=O)N(c1ccc3nc(OC)ncc3c1)C2 [Example 122432]	1.32
COc1ccc2c(c1)C(=O)N(c1ccc3c(c1)OCO3)C2 [Example 116360]	1.282
CN1CCN(c2ccc3c(c2)C(=O)N(c2ccc4ccn(C)c4c2)C3)CC1 [Example 124649]	1.119
COc1ccc2c(c1)C(=O)N(c1ccc3c(Cl)ccnc3c1)C2 [Example 123711]	1.262
COc1cccc2c1CN(c1ccc3ccn(C)c3c1)C2=O [Example 120123]	1.966
Nc1ccc2c(c1)C(=O)N(c1ccc3ccsc3c1)C2 [Example 122036]	1.827
Cn1ccc2ccc(N3Cc4cc(N)ccc4C3=O)cc21 [Example 121257]	1.856
Cc1ccc2c(c1)C(=O)N(c1ccc3c(ccn3C)c1)C2 [Example 121507]	1.411
O=C1c2cc(OC(F)F)ccc2CN1c1ccc2c(c1)CCC2 [Example 119337]	1.66
O=C(O)C1CCc2cc(N3Cc4ccccc4C3=O)ccc21 (centres unmarked) [Example 113488]	1.24
